Test results from ChEMBL document CHEMBL1201862, “PubChem BioAssay data set” (2004).
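1) Cells in 96-well plates. 2) Compound, 48 h, 5 concentrations. 3) Linear interpolation between surrounding doses. 4) Unreached endpoint = highest concentration. GI50 marks 50% less growth.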 Calls of active or inactive are those of the source. Cut-off read from the data, not from the text of the source: active = GI50 up to about 1.1 µM and inactive = higher.

Assays:
Assay in all cases: growth of human tumour cells (NCI), 48 h
[1] = test system: OVCAR-4
[2] = test system: KM-20L2
[3] = test system: A549
[4] = test system: KM12
[5] = test system: SR
[6] = test system: CCRF-CEM
[7] = test system: HOP-92
[8] = test system: 786-0
[9] = test system: UACC-257
[10] = test system: ACHN
[11] = test system: A498
[12] = test system: TK-10
[13] = test system: OVCAR-3
[14] = test system: UACC-62
[15] = test system: SNB-75
[16] = test system: NCI-H226

Compound	GI50 [1]	GI50 [2]	GI50 [3]	GI50 [4]	GI50 [5]	GI50 [6]	GI50 [7]	GI50 [8]	GI50 [9]	GI50 [10]	GI50 [11]	GI50 [12]	GI50 [13]	GI50 [14]	GI50 [15]	GI50 [16]
CC(=O)OCc1cc(OC(C)=O)cnc1COC(C)=O	> 100 µM (inactive)	> 100 µM (inactive)	> 100 µM (inactive)	> 100 µM (inactive)	> 100 µM (inactive)	> 100 µM (inactive)	> 100 µM (inactive)	> 100 µM (inactive)	> 100 µM (inactive)	> 100 µM (inactive)	> 100 µM (inactive)	> 100 µM (inactive)	> 100 µM (inactive)	> 100 µM (inactive)	> 100 µM (inactive)	> 100 µM (inactive)
CC1(C)C(=O)/C=C\C(=O)C(C)(C)C2=CC=C(O2)C(C)(C)C(=O)/C=C\C(=O)C(C)(C)C2=CC=C1O2	> 100 µM (inactive)	> 100 µM (inactive)	> 100 µM (inactive)	> 100 µM (inactive)	> 100 µM (inactive)	> 100 µM (inactive)	> 100 µM (inactive)	> 100 µM (inactive)	> 100 µM (inactive)	> 100 µM (inactive)	> 100 µM (inactive)	> 100 µM (inactive)	> 100 µM (inactive)			> 100 µM (inactive)
CN(C)CCNC(=O)c1ccc(C(=O)NCCN(C)C)c2nc3ccccc3cc12	0.697 µM (active)	0.568 µM (active)	0.45 µM (active)	0.792 µM (active)	0.399 µM (active)	0.676 µM (active)	1.41 µM (inactive)	0.692 µM (active)	1.62 µM (inactive)	0.637 µM (active)	1.15 µM (inactive)	0.94 µM (active)	1.77 µM (inactive)	1.15 µM (inactive)	1.71 µM (inactive)	1.16 µM (inactive)
CN1CCC(c2c(O)cc(O)c3c(=O)cc(-c4ccccc4Cl)oc23)C(O)C1 (stereo unspecified)	0.124 µM (active)	0.217 µM (active)	0.0607 µM (active)	0.0228 µM (active)	0.0247 µM (active)	0.0271 µM (active)	0.0194 µM (active)	0.0498 µM (active)	0.0627 µM (active)	0.048 µM (active)	0.117 µM (active)	0.219 µM (active)		0.0289 µM (active)	0.0219 µM (active)	0.0336 µM (active)
CCOc1ccc(/C=C/c2cc(OC)c(OC)c(OC)c2)cc1	11.7 µM (inactive)	0.82 µM (active)	1.08 µM (active)	0.411 µM (active)	2.46 µM (inactive)	1.86 µM (inactive)	10.8 µM (inactive)	3.05 µM (inactive)	0.658 µM (active)	1.56 µM (inactive)	0.439 µM (active)	8.83 µM (inactive)	0.596 µM (active)	0.385 µM (active)	0.701 µM (active)	2.45 µM (inactive)
COC(=O)C1CC(c2ccc(Cl)cc2)=NO1 (stereo unspecified)	> 100 µM (inactive)	> 100 µM (inactive)	> 100 µM (inactive)	> 100 µM (inactive)	> 100 µM (inactive)	> 100 µM (inactive)	> 100 µM (inactive)	> 100 µM (inactive)	> 100 µM (inactive)	> 100 µM (inactive)	> 100 µM (inactive)	> 100 µM (inactive)	> 100 µM (inactive)	> 100 µM (inactive)	> 100 µM (inactive)	> 100 µM (inactive)
Cc1ccc(NCC(=O)N2CC(=O)Nc3ccccc32)cc1	> 100 µM (inactive)	> 100 µM (inactive)	> 100 µM (inactive)	> 100 µM (inactive)	> 100 µM (inactive)	> 100 µM (inactive)	> 100 µM (inactive)	> 100 µM (inactive)	> 100 µM (inactive)	> 100 µM (inactive)		> 100 µM (inactive)	> 100 µM (inactive)	> 100 µM (inactive)	> 100 µM (inactive)	> 100 µM (inactive)
CCCCCCCCCCCC[N+]12CC[N+](CCN)(CC1)CC2	> 100 µM (inactive)	62.4 µM (inactive)	> 100 µM (inactive)	23.7 µM (inactive)	26.9 µM (inactive)	73.6 µM (inactive)	29.4 µM (inactive)	> 100 µM (inactive)	> 100 µM (inactive)	> 100 µM (inactive)		17.1 µM (inactive)	> 100 µM (inactive)	56.9 µM (inactive)	28.2 µM (inactive)	63.7 µM (inactive)
C/C(CN1C(=O)c2ccccc2C1=O)=N\NS(=O)(=O)c1ccc2ccccc2c1	> 100 µM (inactive)	> 100 µM (inactive)	> 100 µM (inactive)	> 100 µM (inactive)	> 100 µM (inactive)	> 100 µM (inactive)		> 100 µM (inactive)	> 100 µM (inactive)	> 100 µM (inactive)	> 100 µM (inactive)	> 100 µM (inactive)	> 100 µM (inactive)	> 100 µM (inactive)	32.1 µM (inactive)	> 100 µM (inactive)
C/N=C(\NC(=S)N(C)C)N(C)C	> 100 µM (inactive)	> 100 µM (inactive)	> 100 µM (inactive)	> 100 µM (inactive)	> 100 µM (inactive)	> 100 µM (inactive)	> 100 µM (inactive)	> 100 µM (inactive)	> 100 µM (inactive)	> 100 µM (inactive)	> 100 µM (inactive)	> 100 µM (inactive)		> 100 µM (inactive)	> 100 µM (inactive)	48.5 µM (inactive)
Fc1nc(F)nc(-c2c3ccccc3c3n2CCS3)n1	98.9 µM (inactive)	> 100 µM (inactive)	> 100 µM (inactive)	47 µM (inactive)	37 µM (inactive)	33.1 µM (inactive)	39.4 µM (inactive)	78.5 µM (inactive)		> 100 µM (inactive)	30.8 µM (inactive)	> 10 µM (inactive)	> 100 µM (inactive)		22.8 µM (inactive)	> 100 µM (inactive)
C1=CC=C2NCCCCCCC/N=C3/C=CC=CC=C3NCCCCCCC/N=C\2C=C1	64.3 µM (inactive)	30.5 µM (inactive)	> 100 µM (inactive)	> 100 µM (inactive)	63.5 µM (inactive)	36.8 µM (inactive)	33.9 µM (inactive)	> 100 µM (inactive)	> 100 µM (inactive)	85.7 µM (inactive)			10 µM (inactive)	10 µM (inactive)	25.8 µM (inactive)	> 100 µM (inactive)
Cn1c2ccccc2c(=O)c2c([N+](=O)[O-])ccc(NCCN)c21	12.2 µM (inactive)	10.1 µM (inactive)	11.9 µM (inactive)	6.43 µM (inactive)	20.1 µM (inactive)		6.76 µM (inactive)	6.93 µM (inactive)	13.6 µM (inactive)	6.3 µM (inactive)	16.5 µM (inactive)	14.7 µM (inactive)	13.8 µM (inactive)	14.9 µM (inactive)	12.1 µM (inactive)	13.7 µM (inactive)
